Measurements from patent US9562035B2, “Benzamide derivative useful as FASN inhibitors for the treatment of cancer” (Janssen Pharmaceutica NV, priority 2013, dated 2017).

Legend:
[1] = biological target: T1, FASN Keto-reductase Domain (Homo sapiens, UniProt P49327); assay: Fatty Acid Synthase Keto-Reductase Domain (FASN KR) Inhibition; format: biochemical; conditions: mean where tested more than once; read-out: FASN K-R Domain pIC50 (converted)
T1 construct: 10 μL hFASN enzyme (full length, 300 ng, purified in house) and 360 μM NADPH; made in house
T1 sequence (P49327 whole entry, the tested form may be a part): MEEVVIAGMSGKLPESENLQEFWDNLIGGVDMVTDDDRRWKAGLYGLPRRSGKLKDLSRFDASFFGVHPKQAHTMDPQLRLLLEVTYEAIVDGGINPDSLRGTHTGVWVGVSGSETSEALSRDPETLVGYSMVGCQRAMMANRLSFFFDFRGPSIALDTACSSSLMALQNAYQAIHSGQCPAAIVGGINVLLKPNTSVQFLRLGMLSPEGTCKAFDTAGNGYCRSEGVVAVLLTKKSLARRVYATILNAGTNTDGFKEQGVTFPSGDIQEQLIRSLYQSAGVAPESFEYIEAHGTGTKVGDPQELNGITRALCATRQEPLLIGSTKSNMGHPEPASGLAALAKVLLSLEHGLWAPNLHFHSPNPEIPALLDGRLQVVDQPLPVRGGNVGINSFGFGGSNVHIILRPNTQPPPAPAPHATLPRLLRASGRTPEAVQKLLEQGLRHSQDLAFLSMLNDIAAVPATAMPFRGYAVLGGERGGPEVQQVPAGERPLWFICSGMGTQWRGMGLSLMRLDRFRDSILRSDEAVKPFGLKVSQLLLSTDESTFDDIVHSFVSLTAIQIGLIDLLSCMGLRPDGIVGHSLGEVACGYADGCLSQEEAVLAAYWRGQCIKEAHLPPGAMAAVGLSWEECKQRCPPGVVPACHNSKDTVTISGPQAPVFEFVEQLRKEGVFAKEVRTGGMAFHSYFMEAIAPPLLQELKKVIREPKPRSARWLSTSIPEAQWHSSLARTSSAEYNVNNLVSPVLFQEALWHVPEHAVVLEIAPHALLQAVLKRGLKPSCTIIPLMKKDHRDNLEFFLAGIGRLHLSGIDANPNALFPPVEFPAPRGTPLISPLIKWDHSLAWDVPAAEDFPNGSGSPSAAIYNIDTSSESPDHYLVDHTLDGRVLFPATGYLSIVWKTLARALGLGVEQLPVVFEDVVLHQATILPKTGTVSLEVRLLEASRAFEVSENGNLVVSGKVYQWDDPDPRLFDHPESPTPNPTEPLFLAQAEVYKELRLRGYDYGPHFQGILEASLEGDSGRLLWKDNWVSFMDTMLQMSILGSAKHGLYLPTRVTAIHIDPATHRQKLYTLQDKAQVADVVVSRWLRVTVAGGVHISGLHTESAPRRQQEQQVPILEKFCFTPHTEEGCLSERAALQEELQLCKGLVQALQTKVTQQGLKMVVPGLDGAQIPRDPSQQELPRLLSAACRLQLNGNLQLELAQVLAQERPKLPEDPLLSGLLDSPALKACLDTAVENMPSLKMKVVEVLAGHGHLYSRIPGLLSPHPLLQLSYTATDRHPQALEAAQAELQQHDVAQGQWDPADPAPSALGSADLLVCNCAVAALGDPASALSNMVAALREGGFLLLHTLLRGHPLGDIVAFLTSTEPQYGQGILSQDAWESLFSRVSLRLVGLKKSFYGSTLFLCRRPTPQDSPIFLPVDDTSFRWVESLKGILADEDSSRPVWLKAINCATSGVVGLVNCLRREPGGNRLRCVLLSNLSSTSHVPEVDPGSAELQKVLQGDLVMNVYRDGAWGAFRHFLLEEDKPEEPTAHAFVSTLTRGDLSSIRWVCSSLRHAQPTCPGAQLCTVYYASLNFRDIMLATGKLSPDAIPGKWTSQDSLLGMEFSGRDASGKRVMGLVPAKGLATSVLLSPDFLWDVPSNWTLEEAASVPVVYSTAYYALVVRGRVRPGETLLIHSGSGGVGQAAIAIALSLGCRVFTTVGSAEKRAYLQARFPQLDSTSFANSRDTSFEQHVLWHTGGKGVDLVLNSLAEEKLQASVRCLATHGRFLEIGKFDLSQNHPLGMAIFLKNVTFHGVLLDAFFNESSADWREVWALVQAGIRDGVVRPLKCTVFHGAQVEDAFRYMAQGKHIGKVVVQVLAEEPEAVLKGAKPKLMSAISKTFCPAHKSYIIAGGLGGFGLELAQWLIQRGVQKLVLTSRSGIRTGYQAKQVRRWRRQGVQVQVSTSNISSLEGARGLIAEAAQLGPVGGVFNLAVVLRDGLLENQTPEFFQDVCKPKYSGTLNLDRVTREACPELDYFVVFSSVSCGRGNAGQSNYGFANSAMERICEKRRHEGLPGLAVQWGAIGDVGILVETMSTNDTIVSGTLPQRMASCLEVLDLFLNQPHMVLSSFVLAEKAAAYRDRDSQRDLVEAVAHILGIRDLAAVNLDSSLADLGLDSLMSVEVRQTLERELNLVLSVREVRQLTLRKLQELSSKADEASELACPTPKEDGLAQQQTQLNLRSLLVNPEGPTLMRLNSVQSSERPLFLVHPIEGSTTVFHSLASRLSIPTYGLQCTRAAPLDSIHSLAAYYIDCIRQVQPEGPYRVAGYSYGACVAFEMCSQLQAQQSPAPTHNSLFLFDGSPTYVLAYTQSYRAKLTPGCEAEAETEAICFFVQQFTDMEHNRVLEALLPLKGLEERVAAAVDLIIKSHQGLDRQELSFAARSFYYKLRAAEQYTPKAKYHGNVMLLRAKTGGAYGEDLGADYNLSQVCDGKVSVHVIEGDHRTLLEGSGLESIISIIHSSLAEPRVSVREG
Procedure: 10 μL assay buffer (100 mM KH2PO4 pH 7.5) was added to a 384-well clear plate (costar 3702). 0.3 μL compound (at concentrations of 30 μM, 10 μM, 3 μM, 1 μM, 0.30 μM, 0.10 μM, 0.03 μM and 0.01 μM)/DMSO, 10 μL hFASN enzyme (full length, 300 ng, purified in house) and 360 μM NADPH (except in blank) were then added. Then, 10 μL 180 mM ethyl acetoacetate (Aldrich 688983) was added, mixed and immediately thereafter, the absorbance at 340 nm (T1) by Multiscan (Labsystems) was measured. After 20 minutes incubation at room temperature the plate was measured again (T2).
The decrease in absorbance was calculated as (Absorbance before incubation T1)−(Absorbance following incubation T2).
(§1) Raw data generated by the instrument were normalized to % Controlmin values, which were calculated as: % Controlmin=100*(x−mLC)/(mHC−mLC)
(§2) where mLC and mHC were the means of the low control wells and high control wells on the plate, after manual exclusion of outliers. A plot of Controlmin versus test compound concentration was fitted to a 4-parameter logistic curve using a non-linear least squares regression method. From the plot, an IC50 (concentration at which 50% inhibition is achieved) was calculated. pIC50 values were calculated as −log(IC50), when IC50 is expressed in molar units.

[2] = biological target: T2, hFASN enzyme (full length) (Homo sapiens, UniProt P49327); assay: Fatty Acid Synthase (FASN) Inhibition Scintillation Proximity Assay; format: biochemical; conditions: for IC50: mean where tested more than once, ~ = standard error of pIC50 larger than 0.5; for inhibition at 10 µM: read-out: FASN % Effect @1E−05M
T2 construct: 10 μL hFASN enzyme (full length, 300 ng, purified in house); made in house
T2 sequence (P49327 whole entry): as the sequence (P49327 whole entry, the tested form may be a part) above
Procedure: In this assay, inhibition of FASN activity is measured using ^3H-acetyl-CoA and malonyl-CoA as substrates. ^3H-Acetyl CoA is converted to ^3H-palmitate through a series of reactions by the FASN protein, which contains 7 functional domains and carries out 7 enzymatic reactions to ultimately produce ^3H-palmitate. The assay principle is based upon the fact that ^3H-acetyl-CoA is hydrophilic and the end product, ^3H-palmitate is hydrophobic.
10 μL assay buffer (100 mM KH2PO4 pH 7.5, 1 mM DTT) (20 μL in blanks) was added to a 384-well white Opti Plate plate (Perkin Elmer). 0.9 μL test compound (at concentrations of 30 μM, 10 μM, 3 μM, 1 μM, 0.30 μM, 0.10 μM, 0.03 μM and 0.01 μM)/DMSO and 10 μL hFASN enzyme (full length, 300 ng, purified in house) or 10 μL assay buffer was added to the wells. Then 10 μL 450 μM NADPH (Sigma N7505), 18.75 μM [^3H]-acetyl-CoA (Perkin Elmer NET-290L), 150 μM malonyl-CoA (Sigma M4263) were added, mixed and incubated at room temperature for 60 minutes. The reaction was stopped by adding 20 μL Streptavidin coupled imaging beads (25 mg/ml). After incubation for 30 minutes at room temperature in the dark, the 384 well plate was centrifuged at 1500 rpm for 3 minutes and was measured after at least 24 hrs by the LEADseeker™, measuring emission using a 610±20 nm pass filter. (Bays, N. W., et al., “A simplified scintillation proximity assay for fatty acid synthase activity: development and comparison with other FAS activity assays”, J. Biomol. Screen, 2009, pp 636-642, Vol. 14(6).)
as §1, §2

[3] = test system: A2780 ovarian cells; assay: A2780 Ovarian Cell Proliferation Assay in Lipid Reduced Medium, without Palmitate; format: cell-based; conditions: Homo sapiens, A2780; lipid reduced medium, without palmitate, 96 h, MTT; read-out: Proliferation A2780 w/o Palmitate pIC50 (converted)
Procedure: (§3) The biological assays described below correspond to comparative assays for ovarian cell proliferation. […] Compounds active in the absence of palmitate would not be expected to be active in the control.
(§4) 2500 cells were seeded in a 96-well clear well plate in 200 μL RPMI1640 with 10% Fetal Calf Serum (Hyclone), and incubated at 37° C., 5% CO2. Blanks were wells without cells. The next day the culture medium was aspirated and replaced by 160 μL culture medium with 10% Lipid-Reduced Serum (LRS, Hyclone). 20 μL test compound (at concentrations of 30 μM, 10 μM, 3 μM, 1 μM, 0.30 μM, 0.10 μM, 0.03 μM and 0.01 μM)/DMSO dilution followed by 20 μL ethanol-BSA solution were added to a final concentrations of 0.2% DMSO, 0.2% fatty-acid-free BSA, 0.25% ethanol. After 96 h incubation an MTT assay was performed. The absorbance was measured at 544 nm on a SPECTRAMAX.
as §1, §2
(§5) Representative compounds of the present invention were tested according to the procedure as described in Biological Example 3 above, with results as listed in Table BIO-3, below.

[4] = test system: A2780 ovarian cells; assay: A2780 Ovarian Cell Proliferation Assay in Lipid Reduced Medium, with Palmitate (control); format: cell-based; conditions: Homo sapiens, A2780; lipid reduced medium, 25 μM palmitate, 96 h, MTT; read-out: Proliferation A2780 with Palmitate pIC50 (converted)
Procedure: as §3
as §4, with “palmitate-BSA” for “ethanol-BSA”, “DMSO, 25 μM palmitate (Sigma, P0500, 10 mM stock solution in ethanol)” for “DMSO,”, “incubation,” for “incubation”
A best fit curve was fitted by a minimum sum of squares method, plotting Controlmin versus test compound concentration. From the plot, an IC50 (concentration at which 50% inhibition is achieved) was calculated. pIC50 values, presented in the Table below, were calculated as −log(IC50).
as §5

IC50 [1]	IC50 [2]	inhibition at 10 µM [2]	IC50 [3]	IC50 [4]	SMILES
29.5 nM	17.4 nM	100%	95.5 nM	> 10000 nM	COc1ccc(C(=O)Nc2cc(C(=O)N3CCC(c4ccc(-c5cnn(C)c5)cc4)CC3)ccc2C)cc1 [Compound 93, 4-methoxy-N-(2-methyl-5-(4-(4-(1-methyl-1H-pyrazol-4-yl)phenyl)piperidine-1-carbonyl)phenyl)benzamide]
35.5 nM	24 nM	106%	~12.3 nM	7760 nM	Cc1ccc(C(=O)N2CCC(c3ccc(-c4cnn(C)c4)cc3)CC2)cc1NC(=O)c1cnc(N(C)C(C)C)nc1 [Compound 144, 2-(isopropyl(methyl)amino)-N-(2-methyl-5-(4-(4-(1-methyl-1H-pyrazol-4-yl)phenyl)piperidine-1-carbonyl)phenyl)pyrimidine-5-carboxamide]
32.4 nM	19.1 nM	110%	~20.4 nM	> 10000 nM	Cc1ccc(C(=O)N2CCC(c3ccc(-c4cnn(C)c4)cc3)CC2)cc1NC(=O)c1cnc(NC(C)C)nc1 [Compound 146, 2-(isopropylamino)-N-(2-methyl-5-(4-(4-(1-methyl-1H-pyrazol-4-yl)phenyl)piperidine-1-carbonyl)phenyl)pyrimidine-5-carboxamide]
126 nM	60.3 nM	107%	112 nM	3310 nM	Cc1ccc(C(=O)N2CCC(c3ccc(-c4cnn(-c5cccnc5)c4)cc3)CC2)cc1NC(=O)c1ccc(NC(C)C)nc1 [Compound 261, 6-(isopropylamino)-N-(2-methyl-5-(4-(4-(1-(pyridin-3-yl)-1H-pyrazol-4-yl)phenyl)piperidine-1-carbonyl)phenyl)nicotinamide]
~603 nM	151 nM	92%	234 nM	240 nM	CC(C)Nc1ccc(C(=O)Nc2cc(C(=O)N3CCC(c4ccc(-c5ccc6cnccc6c5)cc4)CC3)ccc2Cl)cn1 [Compound 67, N-(2-chloro-5-(4-(4-(isoquinolin-6-yl)phenyl)piperidine-1-carbonyl)phenyl)-6-(isopropylamino)nicotinamide]
85.1 nM	32.4 nM	93%	148 nM	13500 nM	CC(C)Nc1ccc(C(=O)Nc2cc(C(=O)N3CC(c4ccc(-c5cccnc5)cc4)C3)ccc2Cl)cn1 [Compound #73, N-(2-chloro-5-(3-(4-(pyridin-3-yl)phenyl)azetidine-1-carbonyl)phenyl)-6-(isopropylamino)nicotinamide]
1000 nM	891 nM	84%	1200 nM	> 10000 nM	Cc1ccc(C(=O)N2CCC(c3ccc(-c4cnn(C)c4)cc3)CC2)cc1NC(=O)[C@@H]1CCCN1 [Compound 171, (S)—N-(2-methyl-5-(4-(4-(1-methyl-1H-pyrazol-4-yl)phenyl)piperidine-1-carbonyl)phenyl)pyrrolidine-2-carboxamide]
1020 nM	479 nM	100%	741 nM	> 10000 nM	Cc1ccc(C(=O)N2CCC(c3ccc(-c4cnn(C)c4)cc3)CC2)cc1NC(=O)[C@@H]1CCCN1C [Compound 238, (S)-1-methyl-N-(2-methyl-5-(4-(4-(1-methyl-1H-pyrazol-4-yl)phenyl)piperidine-1-carbonyl)phenyl)pyrrolidine-2-carboxamide]
91.2 nM	40.7 nM	100%	28.2 nM	6920 nM	Cc1ccc(C(=O)N2CCC(c3ccc(-c4cnn(C)c4)cc3)CC2)cc1NC(=O)c1ccc2[nH]ccc2c1 [Compound 160, N-(2-methyl-5-(4-(4-(1-methyl-1H-pyrazol-4-yl)phenyl)piperidine-1-carbonyl)phenyl)-1H-indole-5-carboxamide]
155 nM	43.7 nM	110%	479 nM	> 10000 nM	Cc1ccc(C(=O)N2CCC(c3ccc(-c4cnn(C)c4)cc3)CC2)cc1NC(=O)C1CCNCC1 [Compound 150, N-(2-methyl-5-(4-(4-(1-methyl-1H-pyrazol-4-yl)phenyl)piperidine-1-carbonyl)phenyl)piperidine-4-carboxamide]
631 nM	316 nM	92%	537 nM	> 10000 nM	Cc1ccc(C(=O)N2CCC(c3ccc(-c4cnn(C)c4)cc3)CC2)cc1NC(=O)c1cnccc1Cl [Compound 114, 4-chloro-N-(2-methyl-5-(4-(4-(1-methyl-1H-pyrazol-4-yl)phenyl)piperidine-1-carbonyl)phenyl)nicotinamide]
–	–	98%	407 nM	> 10000 nM	COc1ccc(C(=O)N2CC(c3ccc(-c4cnn(C)c4)cc3)C2)cc1NC(=O)c1ccc(Cl)nc1 [Compound 183, 6-chloro-N-(2-methoxy-5-(3-(4-(1-methyl-1H-pyrazol-4-yl)phenyl)azetidine-1-carbonyl)phenyl)nicotinamide]
288 nM	–	–	389 nM	2750 nM	COc1ncccc1C(=O)Nc1cc(C(=O)N2CCC(c3ccc(-c4cnn(C)c4)cc3)CC2)ccc1C [Compound 118, 2-methoxy-N-(2-methyl-5-(4-(4-(1-methyl-1H-pyrazol-4-yl)phenyl)piperidine-1-carbonyl)phenyl)nicotinamide]
–	–	99%	162 nM	> 10000 nM	Cc1ccc(C(=O)N2CCC(c3ccc(-c4cnn(C)c4)cc3)CC2)cc1NC(=O)c1ccccc1 [Compound 115, N-(2-methyl-5-(4-(4-(1-methyl-1H-pyrazol-4-yl)phenyl)piperidine-1-carbonyl)phenyl)benzamide]
